The experiment deals with T1, Neutrophil elastase (Homo sapiens, UniProt P08246).
T1 sequence (P08246 whole entry): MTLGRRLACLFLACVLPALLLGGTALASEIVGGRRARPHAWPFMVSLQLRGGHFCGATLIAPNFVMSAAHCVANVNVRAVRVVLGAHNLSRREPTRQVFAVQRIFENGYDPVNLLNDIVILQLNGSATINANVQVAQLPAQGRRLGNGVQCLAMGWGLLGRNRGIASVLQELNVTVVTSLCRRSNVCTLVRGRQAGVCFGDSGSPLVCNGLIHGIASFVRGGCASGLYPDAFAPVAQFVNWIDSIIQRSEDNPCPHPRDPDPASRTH
In words: Compound was evaluated for the inhibitory activity against Human leukocyte elastase; time-dependent inhibition was not observed. The following applies: read-out: kon (M-1-s-1).

Each structure is given as a SMILES string.

The kon is the second-order rate constant of association. As to `CC[C@H]1C(=O)N(C(=O)NCc2ccccc2)[C@H]1Oc1ccc(C(=O)O)cc1`, the kon was 5.6 M⁻¹ s⁻¹.

The values are drawn from BindingDB's records for doi:10.7270/Q2V69MR5 (n/a, 1993).
